Experimental data: the kinase profiling compilation of Christmann-Franck et al. (2016)

Experiments:
Assay in all cases: radiometric filter-binding kinase assay, Kinase HotSpot
Settings in all cases: compound 0.5 µM; ATP 10 µM
CAMK1D (human) = CAMK1D (human) (UniProt Q8IU85)
ZAP70 (human) = ZAP70 (human) (UniProt P43403)
OXSR1 (human) = OXSR1 (human) (UniProt O95747)
ERBB2 (human) = ERBB2 (human) (UniProt P04626)
CSNK1E (human) = CSNK1E (human) (UniProt P49674)
DAPK1 (human) = DAPK1 (human) (UniProt P53355)
GRK7 (human) = GRK7 (human) (UniProt Q8WTQ7)
PASK (human) = PASK (human) (UniProt Q96RG2)
[1] = biological target: TYK2 JH1 catalytic (human) (UniProt P29597)
RPS6KA3 KD1 KD2 (human) = RPS6KA3 KD1 KD2 (human) (UniProt P51812)
CHUK (human) = CHUK (human) (UniProt O15111)
AURKB (human) = AURKB (human) (UniProt Q96GD4)
PTK2B (human) = PTK2B (human) (UniProt Q14289)
NUAK1 (human) = NUAK1 (human) (UniProt O60285)
WNK2 (human) = WNK2 (human) (UniProt Q9Y3S1)
CLK2 (human) = CLK2 (human) (UniProt P49760)
JAK2 JH1 JH2 (human) = JAK2 JH1 JH2 (human) (UniProt O60674)
MAPK10 (human) = MAPK10 (human) (UniProt P53779)
CDK1 CCNA2 (human) = CDK1 CCNA2 (human) (UniProt P06493+P20248)
MAP3K14 (human) = MAP3K14 (human) (UniProt Q99558)
PRKCB2 (human) = PRKCB2 (human) (UniProt P05771)
ACVR1B (human) = ACVR1B (human) (UniProt P36896)
ERBB4 (human) = ERBB4 (human) (UniProt Q15303)
MYLK (human) = MYLK (human) (UniProt Q15746)
LCK (human) = LCK (human) (UniProt P06239)
NEK6 (human) = NEK6 (human) (UniProt Q9HC98)
STK33 (human) = STK33 (human) (UniProt Q9BYT3)
MAP2K1 (human) = MAP2K1 (human) (UniProt Q02750)
DDR2 (human) = DDR2 (human) (UniProt Q16832)
MAP3K11 (human) = MAP3K11 (human) (UniProt Q16584)
ROCK2 (human) = ROCK2 (human) (UniProt O75116)
CDK6 CCND1 (human) = CDK6 CCND1 (human) (UniProt Q00534+P24385)
MARK2 (human) = MARK2 (human) (UniProt Q7KZI7)
PKN2 (human) = PKN2 (human) (UniProt Q16513)
FGFR2 (human) = FGFR2 (human) (UniProt P21802)
BRAF (human) = BRAF (human) (UniProt P15056)
PLK1 (human) = PLK1 (human) (UniProt P53350)
PRKCZ (human) = PRKCZ (human) (UniProt Q05513)
FGFR1 (human) = FGFR1 (human) (UniProt P11362)
CSNK2A2 (human) = CSNK2A2 (human) (UniProt P19784)

Chain of TYK2 JH1 catalytic (human) (P29597 whole entry, looked up): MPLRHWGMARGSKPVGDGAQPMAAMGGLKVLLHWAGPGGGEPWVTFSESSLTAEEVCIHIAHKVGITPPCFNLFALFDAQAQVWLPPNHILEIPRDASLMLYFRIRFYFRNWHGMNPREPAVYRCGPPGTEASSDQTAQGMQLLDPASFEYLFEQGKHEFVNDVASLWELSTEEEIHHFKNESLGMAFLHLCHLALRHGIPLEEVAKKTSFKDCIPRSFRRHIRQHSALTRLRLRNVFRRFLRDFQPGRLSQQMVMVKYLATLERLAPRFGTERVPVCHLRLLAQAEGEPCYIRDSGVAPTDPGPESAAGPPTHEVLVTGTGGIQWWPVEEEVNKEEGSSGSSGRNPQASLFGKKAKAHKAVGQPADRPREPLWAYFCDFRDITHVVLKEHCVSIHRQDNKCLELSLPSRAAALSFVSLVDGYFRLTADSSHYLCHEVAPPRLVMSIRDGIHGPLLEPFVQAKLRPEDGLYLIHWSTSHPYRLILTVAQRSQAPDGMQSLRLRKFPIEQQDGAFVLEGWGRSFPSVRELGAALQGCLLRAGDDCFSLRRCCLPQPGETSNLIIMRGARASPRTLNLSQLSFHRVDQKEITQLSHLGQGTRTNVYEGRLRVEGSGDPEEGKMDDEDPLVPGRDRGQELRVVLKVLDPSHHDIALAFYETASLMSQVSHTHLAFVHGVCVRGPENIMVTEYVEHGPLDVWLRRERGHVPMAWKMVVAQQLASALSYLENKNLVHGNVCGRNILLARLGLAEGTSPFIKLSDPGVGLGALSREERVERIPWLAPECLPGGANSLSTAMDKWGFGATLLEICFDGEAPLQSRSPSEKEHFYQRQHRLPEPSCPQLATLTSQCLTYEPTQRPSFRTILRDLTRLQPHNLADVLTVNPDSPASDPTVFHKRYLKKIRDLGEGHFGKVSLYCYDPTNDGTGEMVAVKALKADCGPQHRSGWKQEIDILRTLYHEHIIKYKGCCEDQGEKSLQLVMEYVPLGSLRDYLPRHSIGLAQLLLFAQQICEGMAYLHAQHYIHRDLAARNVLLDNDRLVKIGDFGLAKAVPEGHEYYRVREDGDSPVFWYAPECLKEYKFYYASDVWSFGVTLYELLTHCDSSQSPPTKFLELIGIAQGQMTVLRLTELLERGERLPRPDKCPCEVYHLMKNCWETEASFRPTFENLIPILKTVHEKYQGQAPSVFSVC
Chain of ROCK2 (human) (O75116 whole entry, looked up): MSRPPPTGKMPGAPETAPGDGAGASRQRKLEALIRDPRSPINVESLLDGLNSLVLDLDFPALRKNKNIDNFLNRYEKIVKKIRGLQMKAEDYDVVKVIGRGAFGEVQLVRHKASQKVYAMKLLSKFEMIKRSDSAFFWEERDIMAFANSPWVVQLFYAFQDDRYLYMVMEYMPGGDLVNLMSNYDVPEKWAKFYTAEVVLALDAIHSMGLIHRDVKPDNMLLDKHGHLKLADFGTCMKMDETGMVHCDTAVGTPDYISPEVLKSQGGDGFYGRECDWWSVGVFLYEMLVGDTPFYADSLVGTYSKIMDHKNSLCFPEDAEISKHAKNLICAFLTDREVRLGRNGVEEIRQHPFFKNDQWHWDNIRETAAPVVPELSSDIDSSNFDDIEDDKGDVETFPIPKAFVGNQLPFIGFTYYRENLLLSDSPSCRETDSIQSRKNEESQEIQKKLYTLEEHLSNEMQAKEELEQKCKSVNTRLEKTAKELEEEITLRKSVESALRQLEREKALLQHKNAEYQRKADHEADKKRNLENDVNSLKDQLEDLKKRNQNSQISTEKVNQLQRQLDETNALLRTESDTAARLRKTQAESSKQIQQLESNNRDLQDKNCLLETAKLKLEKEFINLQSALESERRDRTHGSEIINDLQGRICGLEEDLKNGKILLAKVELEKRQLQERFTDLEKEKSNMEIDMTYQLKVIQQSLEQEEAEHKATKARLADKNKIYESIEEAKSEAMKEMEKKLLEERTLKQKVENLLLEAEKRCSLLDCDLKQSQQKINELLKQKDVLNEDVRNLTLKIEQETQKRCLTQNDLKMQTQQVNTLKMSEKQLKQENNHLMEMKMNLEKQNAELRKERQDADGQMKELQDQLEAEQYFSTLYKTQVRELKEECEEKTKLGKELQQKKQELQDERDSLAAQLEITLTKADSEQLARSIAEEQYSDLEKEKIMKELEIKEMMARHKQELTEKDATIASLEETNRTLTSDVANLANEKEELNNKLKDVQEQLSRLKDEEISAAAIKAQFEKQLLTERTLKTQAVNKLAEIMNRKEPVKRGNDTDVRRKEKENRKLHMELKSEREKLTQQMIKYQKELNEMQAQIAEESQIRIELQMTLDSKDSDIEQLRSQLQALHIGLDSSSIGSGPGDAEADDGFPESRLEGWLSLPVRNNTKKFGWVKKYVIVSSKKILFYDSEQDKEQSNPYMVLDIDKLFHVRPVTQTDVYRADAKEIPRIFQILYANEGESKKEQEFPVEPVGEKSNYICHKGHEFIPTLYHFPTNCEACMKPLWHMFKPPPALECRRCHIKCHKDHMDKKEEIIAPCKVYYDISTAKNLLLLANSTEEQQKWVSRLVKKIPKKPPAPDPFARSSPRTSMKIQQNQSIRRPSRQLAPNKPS
Chain of DDR2 (human) (Q16832 whole entry, looked up): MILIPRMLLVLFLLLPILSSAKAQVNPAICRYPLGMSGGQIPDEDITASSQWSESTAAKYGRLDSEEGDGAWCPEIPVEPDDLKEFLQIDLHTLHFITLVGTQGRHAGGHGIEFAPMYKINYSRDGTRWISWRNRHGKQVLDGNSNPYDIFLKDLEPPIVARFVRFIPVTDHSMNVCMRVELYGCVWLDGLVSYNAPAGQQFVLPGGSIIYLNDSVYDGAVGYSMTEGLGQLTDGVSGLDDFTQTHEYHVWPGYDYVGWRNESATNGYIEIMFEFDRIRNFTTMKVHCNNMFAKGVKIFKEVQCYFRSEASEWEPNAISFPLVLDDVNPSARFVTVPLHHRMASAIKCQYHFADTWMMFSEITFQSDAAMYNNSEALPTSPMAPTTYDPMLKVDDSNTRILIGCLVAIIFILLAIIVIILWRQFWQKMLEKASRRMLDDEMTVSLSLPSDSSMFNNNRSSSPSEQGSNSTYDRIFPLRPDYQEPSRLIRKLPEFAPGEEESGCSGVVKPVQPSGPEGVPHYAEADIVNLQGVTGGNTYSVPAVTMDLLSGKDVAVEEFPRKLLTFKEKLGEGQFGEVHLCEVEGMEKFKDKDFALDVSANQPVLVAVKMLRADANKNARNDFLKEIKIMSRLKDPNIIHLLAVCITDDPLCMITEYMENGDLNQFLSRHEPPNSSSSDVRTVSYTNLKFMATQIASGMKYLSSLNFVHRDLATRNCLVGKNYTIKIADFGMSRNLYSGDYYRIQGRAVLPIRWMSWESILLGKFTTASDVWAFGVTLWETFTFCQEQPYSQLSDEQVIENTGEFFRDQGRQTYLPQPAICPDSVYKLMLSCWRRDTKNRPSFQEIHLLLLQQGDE
Chain of ACVR1B (human) (P36896 whole entry, looked up): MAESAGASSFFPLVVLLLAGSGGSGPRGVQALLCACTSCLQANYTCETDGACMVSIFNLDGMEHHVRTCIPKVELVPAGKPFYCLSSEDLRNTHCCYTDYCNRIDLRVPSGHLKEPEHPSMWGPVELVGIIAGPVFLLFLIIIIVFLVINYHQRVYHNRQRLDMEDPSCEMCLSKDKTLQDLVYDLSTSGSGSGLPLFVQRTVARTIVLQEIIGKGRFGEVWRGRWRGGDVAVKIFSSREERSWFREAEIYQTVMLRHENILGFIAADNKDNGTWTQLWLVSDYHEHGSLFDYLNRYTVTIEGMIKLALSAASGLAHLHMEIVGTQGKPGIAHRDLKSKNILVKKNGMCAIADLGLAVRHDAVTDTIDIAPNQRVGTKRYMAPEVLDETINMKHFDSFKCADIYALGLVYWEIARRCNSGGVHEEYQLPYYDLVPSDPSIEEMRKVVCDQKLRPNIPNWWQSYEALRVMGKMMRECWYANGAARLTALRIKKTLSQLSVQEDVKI
Chain of CDK6 CCND1 (human) (P24385 whole entry, looked up): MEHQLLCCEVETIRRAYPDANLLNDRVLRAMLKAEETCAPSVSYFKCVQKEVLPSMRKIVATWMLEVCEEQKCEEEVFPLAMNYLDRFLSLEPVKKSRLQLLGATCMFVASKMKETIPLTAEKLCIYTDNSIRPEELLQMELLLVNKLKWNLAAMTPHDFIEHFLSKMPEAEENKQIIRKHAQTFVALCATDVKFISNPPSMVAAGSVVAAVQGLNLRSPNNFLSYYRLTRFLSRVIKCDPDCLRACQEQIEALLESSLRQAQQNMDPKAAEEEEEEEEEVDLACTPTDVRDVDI
Chain of CDK6 CCND1 (human) (Q00534 whole entry, looked up): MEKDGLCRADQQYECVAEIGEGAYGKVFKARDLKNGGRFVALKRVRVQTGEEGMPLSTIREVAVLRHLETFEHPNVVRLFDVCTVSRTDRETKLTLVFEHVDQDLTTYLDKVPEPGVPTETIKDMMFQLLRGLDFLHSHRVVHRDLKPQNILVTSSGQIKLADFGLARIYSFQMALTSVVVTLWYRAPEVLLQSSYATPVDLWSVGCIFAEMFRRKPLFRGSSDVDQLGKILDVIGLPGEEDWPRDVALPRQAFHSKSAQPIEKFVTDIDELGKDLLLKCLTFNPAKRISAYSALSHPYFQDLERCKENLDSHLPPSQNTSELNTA
Chain of NEK6 (human) (Q9HC98 whole entry, looked up): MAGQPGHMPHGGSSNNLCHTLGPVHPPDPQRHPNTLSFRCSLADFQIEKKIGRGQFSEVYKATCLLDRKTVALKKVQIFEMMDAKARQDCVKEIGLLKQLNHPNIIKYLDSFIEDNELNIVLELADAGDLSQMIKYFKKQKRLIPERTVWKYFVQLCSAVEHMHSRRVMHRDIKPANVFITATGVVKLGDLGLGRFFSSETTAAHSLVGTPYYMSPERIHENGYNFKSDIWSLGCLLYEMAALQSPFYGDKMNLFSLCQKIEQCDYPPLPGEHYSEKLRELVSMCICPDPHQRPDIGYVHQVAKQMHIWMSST

Row | SMILES | residual activity (ZAP70 (human)) | residual activity (OXSR1 (human)) | residual activity (ERBB2 (human)) | residual activity (CSNK1E (human)) | residual activity (DAPK1 (human)) | residual activity (GRK7 (human)) | residual activity (PASK (human)) | residual activity [1] | residual activity (RPS6KA3 KD1 KD2 (human)) | residual activity (CHUK (human)) | residual activity (AURKB (human)) | residual activity (PTK2B (human)) | residual activity (NUAK1 (human)) | residual activity (WNK2 (human)) | residual activity (CLK2 (human)) | residual activity (JAK2 JH1 JH2 (human)) | residual activity (MAPK10 (human)) | residual activity (CDK1 CCNA2 (human)) | residual activity (MAP3K14 (human)) | residual activity (PRKCB2 (human)) | further results
1 | Nc1ncnc2[nH]nc(Nc3ccc(F)cc3)c12 | 95.2% | 110% | 101% | 80.5% | 116% | 105% | 91.8% | 92.3% | 89.8% | 99.5% | 96.9% | 101% | 95.5% | 110% | 92.4% | 105% | 100% | 93% | 111% | 105% | residual activity (CAMK1D (human)): 130%; residual activity (ACVR1B (human)): 104%; residual activity (ERBB4 (human)): 121%; residual activity (MYLK (human)): 94.7%; residual activity (LCK (human)): 98.3%; residual activity (NEK6 (human)): 102%; residual activity (STK33 (human)): 94.3%; residual activity (MAP2K1 (human)): 101%; residual activity (DDR2 (human)): 94.2%; residual activity (MAP3K11 (human)): 93.9%; residual activity (ROCK2 (human)): 92.1%; residual activity (CDK6 CCND1 (human)): 96.6%; residual activity (MARK2 (human)): 87%; residual activity (PKN2 (human)): 82%; residual activity (FGFR2 (human)): 97.2%; residual activity (BRAF (human)): 91.7%; residual activity (PLK1 (human)): 99.9%; residual activity (PRKCZ (human)): 109%; residual activity (FGFR1 (human)): 91.2%
2 | CC(C)N(CCC(=O)c1ccc2ccccc2c1)Cc1ccccc1 | 93.7% | 106% | 98.7% | 96.1% | 97.9% | 121% | 97.3% | 103% | 95.1% | 96.4% | 101% | 106% | 97.1% | 107% | 96.3% | 97.5% | 91.1% | 92.9% | 117% | 101% | residual activity (CSNK2A2 (human)): 95.4%; residual activity (ACVR1B (human)): 99.5%; residual activity (ERBB4 (human)): 91.7%; residual activity (MYLK (human)): 95.6%; residual activity (LCK (human)): 98.9%; residual activity (NEK6 (human)): 109%; residual activity (STK33 (human)): 104%; residual activity (MAP2K1 (human)): 82.5%; residual activity (DDR2 (human)): 92.5%; residual activity (MAP3K11 (human)): 97%; residual activity (ROCK2 (human)): 92.8%; residual activity (CDK6 CCND1 (human)): 96.8%; residual activity (MARK2 (human)): 97.9%; residual activity (PKN2 (human)): 98.7%; residual activity (FGFR2 (human)): 107%; residual activity (BRAF (human)): 95.6%; residual activity (PLK1 (human)): 97.8%; residual activity (PRKCZ (human)): 100%; residual activity (FGFR1 (human)): 99.5%
3 | O=C(Nc1cccc(Nc2nccc(Nc3cccc(C(F)(F)F)c3)n2)c1)C1CC1 | 126% | 78.9% | 93.8% | 110% | 83.5% | 101% | 106% | 42.5% | 100% | 95.7% | 72.8% | 90.9% | 67.2% | 122% | 87.6% | 47.7% | 99% | 95.9% | 109% | 98% | residual activity (CSNK2A2 (human)): 95.4%; residual activity (CAMK1D (human)): 100%; residual activity (ACVR1B (human)): 110%; residual activity (ERBB4 (human)): 103%; residual activity (MYLK (human)): 90%; residual activity (NEK6 (human)): 103%; residual activity (STK33 (human)): 81.5%; residual activity (MAP2K1 (human)): 98%; residual activity (DDR2 (human)): 81.7%; residual activity (MAP3K11 (human)): 89.5%; residual activity (ROCK2 (human)): 105%; residual activity (CDK6 CCND1 (human)): 93.4%; residual activity (MARK2 (human)): 97%; residual activity (PKN2 (human)): 89.5%; residual activity (FGFR2 (human)): 103%; residual activity (BRAF (human)): 104%; residual activity (PLK1 (human)): 91.7%; residual activity (PRKCZ (human)): 98.8%; residual activity (FGFR1 (human)): 99.6%
